Measured values published in patent EP4015509A1, “ORGANOMETALLIC COMPOUNDS AND THEIR USE AS MULTIMODAL CONTRASTING MEDIA FOR IMAGING DIAGNOSIS” (Justesa Imagen S.A.U, priority 2020, dated 2022).
Converted amounts (≈) assume the structure as drawn. Like-named read-outs stand apart in the source and are kept apart here.

Assays:
[1] = Osmolality test with freezing point equipment; assay type: physicochemical; settings: solutions at a concentration of 0.1 M
[2] = system: V79 fibroblast cultures; assay: IC50 in vitro by cell viability measurement; assay type: cell-based
Text: IC50 values were obtained by measuring cell viability in V79 fibroblast cultures as an alternative to animal experimentation. The values determined are summarized in the following table: Table 2: IC50 determination

[3] = biological target: T1, Bovine Serum Albumin (BSA) (Bos taurus, UniProt P02769); assay: Albumin affinity test by equilibrium dialysis (RED plate), ICP-MS analysis; settings: compound 0.25 mM, BSA 0.6 mM, HEPES buffer pH 7.4, five hours, 37 °C
Procedure: (§1) The albumin affinity test was carried out by in-vitro studies using Thermo Scientific™ "Single-Use RED Plate with 8K MWCO Inserts" 96-well plate, Bovine Serum Albumin (BSA) and HEPES. The technique of the devices is based on the process of equilibrium dialysis. The tests were carried out in a HEPES buffer with a pH of 7.4. In a typical test, following the manufacturer's measurement procedure, 400 µL of a solution containing the compound to be studied and BSA in concentrations of 0.25 mM and 0.6 mM respectively, in HEPES buffer, are added to the sample well. Additionally, 600 µL of HEPES buffer is added in the buffer well. After shaking the system for five hours at 300 rpm at a constant temperature of 37 °C, the concentration of the compound in each well is analysed. This analysis was performed using an Agilent ICP-MS (7900 Series) and with these concentration data the percentage of affinity of the studied compounds was determined.

[4] = biological target: T1, Bovine Serum Albumin (BSA); settings: 5 h, 0.25 mM, pH 7.4
Procedure: as §1

[5] = system: mice; assay: MRI imaging in a 7T animal magnetic resonance equipment; assay type: in vivo
Procedure: The test was carried out in a 7T animal magnetic resonance equipment by administering the contrast medium containing the compound (8) at a dose of 0.1 mmol/Kg to mice.

[6] = system: mice; assay: PET/CT imaging in an animal PET/CT scanner; assay type: in vivo; settings: 130 µCi solution, gallium 68-labelled compound, Figure 7

T1 sequence (P02769 25-607): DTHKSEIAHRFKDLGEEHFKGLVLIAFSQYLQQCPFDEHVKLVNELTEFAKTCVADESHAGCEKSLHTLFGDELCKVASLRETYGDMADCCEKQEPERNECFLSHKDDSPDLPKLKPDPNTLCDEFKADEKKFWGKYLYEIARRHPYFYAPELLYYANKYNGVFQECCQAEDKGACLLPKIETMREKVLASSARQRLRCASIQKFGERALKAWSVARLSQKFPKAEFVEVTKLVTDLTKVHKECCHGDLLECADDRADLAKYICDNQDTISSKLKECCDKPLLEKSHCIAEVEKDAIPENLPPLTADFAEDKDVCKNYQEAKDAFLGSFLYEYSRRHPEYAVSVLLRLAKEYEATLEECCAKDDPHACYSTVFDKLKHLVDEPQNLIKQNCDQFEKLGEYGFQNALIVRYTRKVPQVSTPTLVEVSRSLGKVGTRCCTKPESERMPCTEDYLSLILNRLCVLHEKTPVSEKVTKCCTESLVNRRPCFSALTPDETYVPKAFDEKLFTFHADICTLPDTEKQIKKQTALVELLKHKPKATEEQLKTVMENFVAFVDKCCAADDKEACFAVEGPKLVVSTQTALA

Compound | Osmolality (mOs/Kg) [1] [mOs/Kg] | IC50 [2] [mg/mL] | also measured
O=C([O-])CN1CCN(CC(=O)[O-])CCN([C@H](CO)[C@H](O)CO)CCN(CC(=O)[O-])CC1.[Gd+3] (racemic) [Gadobutrol, reference compound] | 93.33 | >75 | Albumin affinity (%) [3]: Not detectable
CC(=O)Nc1c(I)cc(I)c(C(=O)O)c1I [Acetrizoic acid, reference compound] | 258.47 | – | IC50 ([2]; read-out: IC50): 4.04 mg/mL (≈ 7.25 mM); Albumin affinity (%) [4]: 39.16%
Europium {10-{2-[2-(3-acetylamino-2,4,6-triiodophenylamino) aminoethyl]-2-oxoethyl}-1,4,7,10-tetraaza-1-cyclodecyl}-1,4,7-trioacetate [Compound (9)] | 125.12 | >75 | –
Europium {10-{2-{2-[2-(3-Carboxy-2,4,6-triiodophenylamino)-2-oxoethylamino] aminoethyl}-2-oxoethyl}-1,4,7,10-tetraaza-1-cyclodododecyl}-1,4,7-triacetate [Compound (16)] | 148.12 | >75 | –
Gadolinium {10-{2-[2-(3-acetylamino-2,4,6-triiodophenylamino) aminoethyl]-2-oxoethyl}-1,4,7,10-tetraaza-1-cyclodecyl}-1,4,7-triacetate [Compound (8)] | 117.58 | >75 | visualisation of the liver in MRI ([5]; additional study, MRI signal, figures 5 and 6): visualisation of the liver is possible; elimination route of the contrast medium (MRI) ([5]; mice, dose of 0.1 mmol/Kg, 7T MRI, figures 3 and 4): elimination via the kidneys
Gadolinium {10-{2-{2-[2-(3-Carboxy-2,4,6-triiodophenylamino)-2-oxoethylamino] aminoethyl}-2-oxoethyl}-1,4,7,10-tetraaza-1-cyclodododecyl}-1,4,7-triacetate [Compound (15)] | 155.38 | >75 | –
Gallium {10-{2-[2-(3-acetylamino-2,4,6-triiodophenylamino) aminoethyl]-2-oxoethyl}-1,4,7,10-tetraaza-1-cyclodecyl}-1,4,7-triacetate [Compound (7)] | 123.43 | 8.64 | organs differentiated in PET/CT images [6]: heart, liver, kidneys and bladder are differentiated
Gallium {10-{2-{2-[2-(3-Carboxy-2,4,6-triiodophenylamino)-2-oxoethylamino] aminoethyl}-2-oxoethyl}-1,4,7,10-tetraaza-1-cyclodododecyl}-1,4,7-triacetate [Compound (14)] | 150.42 | 10.12 | –
